Data: patent US20110088107A1, “COMPOSITIONS AND METHODS FOR DERIVING OR CULTURING PLURIPOTENT CELLS” (priority 2009, published 2011)

Tested on: NOD blastocysts (ICM explants)
Experiment: NOD ES cell derivation from blastocysts in the presence of small molecules
Assay type: cell-based, mouse (NOD/LtJ)
Details: NOD/LtJ blastocysts, mESM with the inhibitors
From the text: NOD/ShiLtJ were obtained from the Jackson laboratory and bred in specific-pathogen-free animal facility. Control MEFs were made from 129SvJae mice. Non-NOD ES lines derived used in this study as controls were derived from matings between 129SvJae or B6D2F1 mice. To derive ES lines, ICM explants were derived from day 3.5 blastocysts following procedures previously described (Markoulaki et al., 2008). Where applicable, ES derivation medium was also supplemented with the indicated compounds (Table S2). Dissociation of the outgrowths by treatment with Trypsin was performed on day 5 after plating and the cells were further cultured in mESC derivation medium until colonies appeared (typically after 5-7 days). From then on, established ES lines were cultured in mESM condition supplemented with the indicated compounds. NOD […] ES lines were derived by similarly plating blastocysts in EpiSC-derivation medium (For 100 ml, we added 15 ml FBS (Hyclone), 5 ml KSR, 5 μl Lif (1×107 U ESGRO/ml; Chemicon), 100 μl Mek1 inhibitor (PD98059; Cell Signaling Technology), hFGF2 ([…]), 1 ml non-essential amino acids, 1 ml glutamine solution, and 1 ml pen/strep solution into DMEM/F12). ICM outgrowths were manually passaged after 5-7 days and were stably maintained in […] conditions. […]

`O=C1Cc2c([nH]c3ccc(Br)cc23)-c2ccccc2N1` [Kenpaullone, 9-bromo-7,12-dihydroindolo[3,2-d][1]benzazepin-6(5H)-one] was tested. Which “# of ES lines derived” value did it give?
Its value is 2.

And the “ES derivation (% efficiency)” value?
Its value is “(13%)”.
